According to the supplement of paper PMC7840683:
± gives the standard deviation of the averaged measurements.

Tested on: HepaRG
Experiment: LDH release cytotoxicity, % of total lysis control; higher = more cytotoxic
Details: 48 h
Outline: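 Percent cytotoxicity was scaled between on-plate vehicle and total lysis controls, then averaged over duplicate wells. The cells were single-lot HepaRG on collagen I-coated 96-well plates, exposed for 48 h to eight-point half-log test chemical series topping at 100 µM in serum-free induction medium with 0.5% DMSO. Total lysis wells got 0.1% Triton X, and LDH in 50 µL spent medium was read as resorufin fluorescence (CytoTox-ONE, Tecan Safire).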

Compound	LDH release cytotoxicity (0.03162 µM) [%]	LDH release cytotoxicity (0.1 µM) [%]	LDH release cytotoxicity (0.3162278 µM) [%]	LDH release cytotoxicity (1 µM) [%]	LDH release cytotoxicity (3.16228 µM) [%]	LDH release cytotoxicity (10 µM) [%]	LDH release cytotoxicity (31.6228 µM) [%]	LDH release cytotoxicity (100 µM) [%]	LDH release cytotoxicity (0.031623 µM) [%]	LDH release cytotoxicity (0.316228 µM) [%]
CCC12COCN1COC2 [7a-Ethyldihydro-1H,3H,5H-oxazolo(3,4-c)oxazole]	-1.45 ± 0.8	-1.96 ± 0.61	-1.68 ± 0.1	-1.43 ± 1.1	-1.46 ± 0.12	-1.34 ± 0.19	0.0307 ± 0.78	0.471 ± 1.6	–	–
CCC(C)(C)C(=O)OC1=C(c2ccc(Cl)cc2Cl)C(=O)OC12CCCCC2 [Spirodiclofen]	-0.904 ± 0.1	-1.21 ± 1.1	-0.287 ± 0.5	-1.32 ± 0.39	-1.74 ± 0.89	0.0779 ± 0.41	-1.05 ± 0.14	0.552 ± 0.59	–	–
COP(=O)(OC)OC=C(Cl)Cl [Dichlorvos]	-0.581 ± 0.43	-0.968 ± 0.24	-1.1 ± 0.092	-0.845 ± 0.11	-0.267 ± 0.61	-0.149 ± 0.26	-0.147 ± 0.48	2.09 ± 0.43	–	–
Clc1cc(Cl)c2c(c1)N=C1CCCCCN1C2	-2.23 ± 0.45	-1.38 ± 0.19	-0.748 ± 0.22	-1.45 ± 0.52	-1.34 ± 0.11	1.41 ± 0.42	1.58 ± 0.34	3.36 ± 0.44	–	–
OC(c1ccc(Cl)cc1)(c1ccc(Cl)cc1)C(Cl)(Cl)Cl [Dicofol]	-4.47 ± 0.11	-4.19 ± 0.15	-3.36 ± 1.2	-3.88 ± 0.76	-3.71 ± 1.1	-3.02 ± 0.35	-3.41 ± 0.081	-0.0654 ± 3	–	–
O=C(O)c1c(Cl)ccc2cc(Cl)cnc12 [Quinclorac]	-0.412 ± 0.14	-0.369 ± 0.069	-0.616 ± 0.54	-0.762 ± 0.34	-0.281 ± 0.41	-0.297 ± 0.37	0.046 ± 0.18	0.495 ± 0.038	–	–
CNC(=O)ON=CC(C)(C)SC [Aldicarb]	-1.61 ± 1.2	-1.37 ± 0.9	-2.06 ± 0.65	-1.68 ± 0.72	-1.686 ± 0.0048	-0.703 ± 0.55	-1.04 ± 1	-0.341 ± 0.039	–	–
CN1CSC(=S)N(C)C1 [Dazomet]	-1.04 ± 1.2	-0.753 ± 0.32	-1.34 ± 1.3	-1.86 ± 0.33	-2.37 ± 0.28	-3.44 ± 0.043	13.1 ± 2.2	78 ± 4.3	–	–
CCCOc1nn(C(=O)NS(=O)(=O)c2ccccc2C(=O)OC)c(=O)n1C [Propoxycarbazone-sodium]	0.284 ± 0.84	0.427 ± 0.12	-0.758 ± 0.093	-0.962 ± 0.093	-0.435 ± 0.032	-0.39 ± 0.58	-0.185 ± 0.43	0.864 ± 0.4	–	–
CCOC(=O)CC(SP(=O)(OC)OC)C(=O)OCC (configuration not stated) [Malaoxon]	–	-1.49 ± 0.13	–	-2.43 ± 0.17	-2.14 ± 0.62	-2.43 ± 0.25	-1.77 ± 0.98	-0.859 ± 0.23	-0.0319 ± 0.49	-2.33 ± 1.5
CCCCCCC(=O)O [Heptanoic acid]	-1.47 ± 0.29	-1.55 ± 0.4	-1.65 ± 0.77	-1.97 ± 0.48	-1.6 ± 0.66	-1.54 ± 0.79	-1.75 ± 0.26	0.197 ± 0.072	–	–
Cc1ccc([N+](=O)[O-])cc1N [5-Nitro-o-toluidine]	-0.782 ± 1	-1.02 ± 0.28	-1.84 ± 0.91	-1.647 ± 0.013	-1.55 ± 0.25	-1.24 ± 0.39	-0.792 ± 0.78	-0.343 ± 0.81	–	–
COCCOCCO [Diethylene glycol monomethyl ether]	-0.428 ± 1.3	-2.12 ± 0.55	-0.798 ± 0.33	-1.35 ± 0.45	-0.999 ± 0.47	-1.13 ± 0.19	0.0217 ± 1	1.02 ± 0.39	–	–
CN(C)c1ccc(C(=C2C=CC(=[N+](C)C)C=C2)c2ccc(N(C)C)cc2)cc1 [Gentian Violet]	-1.62 ± 0.081	-2.46 ± 0.081	-1.86 ± 0.074	-1.96 ± 0.38	6.76 ± 0.71	29.8 ± 0.12	51.8 ± 0.8	54.6 ± 3.8	–	–
CCOP(=S)(Oc1ccc([N+](=O)[O-])cc1)c1ccccc1 (configuration not stated) [EPN]	-0.935 ± 0.29	-1.31 ± 0.65	-1.61 ± 1	-1.96 ± 0.085	-1.14 ± 0.37	-0.361 ± 0.0065	0.629 ± 0.14	5.51 ± 0.88	–	–
CC(=O)Nc1ccc(O)cc1 [Acetaminophen]	-3.14 ± 0.072	-3.633 ± 0.0048	-2.81 ± 0.035	-3.06 ± 0.61	-3.13 ± 0.24	-3.2 ± 0.3	-2.512 ± 0.0032	-1.82 ± 0.68	–	–
CC(Cc1ccc(OCC(=O)O)cc1)NCC(O)c1csc(C(F)(F)F)n1 (configuration not stated)	-1.76 ± 1.8	-2.85 ± 0.47	-1.56 ± 0.35	-1.12 ± 0.24	-1.22 ± 0.57	-0.599 ± 0.77	0.839 ± 2.3	0.309 ± 0.77	–	–
CCC(c1ccc(O)cc1)C(CC)c1ccc(O)cc1 (stereo not drawn) [meso-Hexestrol]	-1.95 ± 0.96	-2.35 ± 0.15	-1.46 ± 0.23	-1.95 ± 0.05	-1.99 ± 0.005	-1.59 ± 0.53	0.514 ± 0.37	75.4 ± 1.7	–	–
Clc1ccc(C(c2ccc(Cl)cc2)C(Cl)Cl)cc1 [p,p'-DDD]	-1.25 ± 0.49	-1.27 ± 0.24	-2.03 ± 0.73	-1.62 ± 0.97	-0.977 ± 0.88	-1.35 ± 0.072	-1.4 ± 0.21	0.26 ± 1.1	–	–
